Biological target: T1, apo-sMlaD (Escherichia coli, UniProt P64604)
T1 sequence (P64604 29-183 limits assumed): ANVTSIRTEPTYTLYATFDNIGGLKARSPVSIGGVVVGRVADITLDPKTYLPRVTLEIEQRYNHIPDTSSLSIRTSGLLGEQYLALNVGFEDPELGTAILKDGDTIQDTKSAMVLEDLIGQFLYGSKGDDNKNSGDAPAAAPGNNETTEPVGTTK
Assay: isothermal titration calorimetry
Assay type: binding

Kd [µM]	SMILES
~100	C[C@H](CCC(=O)O)[C@H]1CC[C@H]2[C@@H]3CC[C@@H]4C[C@H](O)CC[C@]4(C)[C@H]3C[C@H](O)[C@]12C [DOC]
61.6 ± 15.6	C[C@H](CCC(=O)O)[C@H]1CC[C@H]2[C@@H]3[C@H](O)C[C@@H]4C[C@H](O)CC[C@]4(C)[C@H]3CC[C@]12C [CDOC]
